Test results as given in patent publication US10294214B2, “Positive allosteric modulators of human melanocortin-4 receptor” (Vanderbilt University, priority 2016, dated 2019).
Entries after “also recorded” stand apart in the source; their conditions may differ.

Experiments:
hMC4R [1] = target: T1, hMC4R (Homo sapiens (Human), UniProt P32245); experiment: LANCE cAMP assay, hMC4R PAM; format: cell-based
Description: Analysis of pharmacological properties of compounds was performed using the LANCE cAMP kit (Perkin Elmer). HEK293 cells stably expressing the hMC4R were treated with PAM compounds at doses indicated, then incubated with an Alexa Fluor 647-labeled antibody in stimulation buffer according to manufacturer's instructions for 30 min at RT. Next, α-MSH was added (at an EC20 dose or at doses indicated for concentration-response curves), and plates were incubated for 15 minutes at RT, followed by the addition of 10 μL of detection mix. Plates were then incubated for 30 minutes at RT and read on a Viewlux (Perkin Elmer) using 618 and 671 nm emission filters. IBMX was not included in the assay.

native L cell MC4R = native L cell MC4R (Mus musculus (Mouse), UniProt P56450); experiment: Ussing chamber assay, α-MSH inhibition of VIP-elevated Isc in mouse colon mucosa
Description: (§1) FIGS. 2A-2I contain data on the characterization of hMC4R PAMs Examples 1, 2, and 3. FIGS. 2A, 2B, and 2C show structures of Examples 1-3, and the affect of Examples 1-3 on the α-MSH dose-response curve at the hMC4R, as determined using the Lance assay. Insets show the concentration-response effect as a function of the fold shift on the α-MSH concentration response curve. […] After α-MSH responses had waned all tissues received PYY (10 nM) to verify residual Y receptor anti-secretory activity. Basal Isc values are indicated to the left of each trace from an exposed area of 0.14 cm^2. Vertical arrows show the timepoint at which α-MSH Isc responses were recorded. […] Each value is the mean±1 SEM with n values in parentheses. ** P<0.01 using one-way ANOVA with Dunnett's post-test.
(§2) GI tissue from adult (12-20 week old) male C57BL/6J mice were dissected free of overlying smooth muscle and mucosae placed between 2 halves of Ussing chambers exposing an area of 0.14 cm^2. Mucosae were bathed both sides with Krebs-Henseleit (KH) buffer of following composition (in mM: 117 NaCl, 24.8 NaHCO3, 4.7 KCl, 1.2 MgSO4, 1.2 KH2PO4, 2.5 CaCl2 and 11.1 D-glucose) aerated with 95% O2/5% CO2 (pH 7.4) and voltage-clamped at 0 mV as described in detail previously (Cox et al., 2001; Cox and Tough, 2002). MC4R activity in mouse colonic epithelium was then characterized. Mouse mucosae were pretreated with vehicle or PAM compounds, then with secretagogue, VIP (10 nM, basolateral), and once elevated ISC had reached its peak and was declining at a constant rate, α-MSH was added to the basolateral reservoir to determine responses.
(§3) ISC responses in μA are expressed as the mean±SEM per unit area (cm2). Single comparisons (using GraphPad Prism) were performed using Student's unpaired t-test while multiple comparisons utilized 1-way ANOVA with Dunnett's post test and P≤0.05 were considered statistically significant.

Y receptor = experiment: Ussing chamber assay, PYY responses in mouse colon mucosa; details: PYY 10 nM; Example 3 at 200 nM or 1 μM
Description: as §1, §2, §3

C57BL/6 mice = experiment: Inhibition of fast-induced refeeding in the mouse; format: in vivo; details: single i.p. dose 5 mg/kg; overnight fasted mice; food intake after two and six hours
Description: FIG. 4 contains data from assays of inhibition of food intake in the mouse by MC4R PAM Example 3. Nine to ten week old C57BL/6 mice were fasted overnight (15 to 17 hours) and re-feeding was monitored the following day after a single i.p. dose of Example 3 (5 mg/kg) or vehicle (10% Tween 80, 5% DMSO v/v). Normalized food intake (food consumed in grams per 100 grams of body weight) per treatment group is shown in the top graphs after two hours (top left) and six hours (top right) of onset of re-feeding phase. Body weight changes for two and six hours are shown in the bottom left and right panels respectively. p values are noted on each graph and were determined by unpaired t tests. Significance was set to p values <0.05.

hMC4R [2] = target: T1, hMC4R; experiment: pGLO cAMP assay, PAM HTS primary screen; format: cell-based; details: 1 μM of library compound
Description: (§4) Drug screening for identification of hits and initial characterization of MC4R PAM compounds were performed using the pGLO assay, as described previously (Pantel J, et al., (2011) Development of a high throughput screen for allosteric modulators of melanocortin-4 receptor signaling using a real time cAMP assay. Eur J Pharmacol 660:139-147. HEK293 cells stably expressing the hMC4R or the hB2ADR with GloSensor (Promega) were plated at a density of 10,000 to 15,000 cells per well on Poly-D-Lysin coated black optical bottom 384 well plates in MEM supplemented with 2% serum. The next day, cells were loaded with the cAMP Glo reagent at a 2% concentration in CO2-independent media for 2 hours at 37° C. […]
(§5) HEK293 cells stably expressing the hMC4R or the β-adrenergic receptor with the p-Promega pGlo luciferase cAMP reporter were plated at a density of 10,000 to 15,000 cells per well on Poly-D-Lysin coated black optical bottom 384 well plates in MEM supplemented with 2% serum. The next day, cells were loaded with the p-Glo substrate at a 2% concentration in CO2-independent media for 2 hours at 37° C. cAMP concentration in cells were measured as a function of luminescence over time using a Hamamatsu FDSS 6000 plate reader. Basal luminescence were measured for 5 minutes followed by injection of 1 μM of the library compounds. […]

[3] = target: human β2-adrenergic receptor (Homo sapiens (Human), UniProt P07550); experiment: pGLO cAMP assay, counterscreen; format: cell-based; details: Isop EC20
Description: as §4, §5

T1 sequence (P32245 whole entry): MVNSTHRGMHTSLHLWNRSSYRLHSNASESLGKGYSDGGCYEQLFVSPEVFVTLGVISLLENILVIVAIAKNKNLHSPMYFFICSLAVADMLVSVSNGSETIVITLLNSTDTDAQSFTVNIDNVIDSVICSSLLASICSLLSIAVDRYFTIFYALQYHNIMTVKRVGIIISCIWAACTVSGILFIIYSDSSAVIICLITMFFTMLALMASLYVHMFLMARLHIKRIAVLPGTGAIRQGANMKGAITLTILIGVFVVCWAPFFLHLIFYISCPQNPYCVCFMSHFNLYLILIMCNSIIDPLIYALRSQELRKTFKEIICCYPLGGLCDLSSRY
native L cell MC4R, sequence (P56450 whole entry): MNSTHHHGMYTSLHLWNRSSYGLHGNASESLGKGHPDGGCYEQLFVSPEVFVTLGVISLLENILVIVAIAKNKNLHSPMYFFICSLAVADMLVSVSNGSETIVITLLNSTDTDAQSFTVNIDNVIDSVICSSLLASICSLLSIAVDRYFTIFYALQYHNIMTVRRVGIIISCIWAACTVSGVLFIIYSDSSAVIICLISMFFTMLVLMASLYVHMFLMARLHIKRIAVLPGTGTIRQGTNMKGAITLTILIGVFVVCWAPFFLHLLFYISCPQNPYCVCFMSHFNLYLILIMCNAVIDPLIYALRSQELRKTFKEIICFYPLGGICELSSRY
human β2-adrenergic receptor, sequence (P07550 whole entry): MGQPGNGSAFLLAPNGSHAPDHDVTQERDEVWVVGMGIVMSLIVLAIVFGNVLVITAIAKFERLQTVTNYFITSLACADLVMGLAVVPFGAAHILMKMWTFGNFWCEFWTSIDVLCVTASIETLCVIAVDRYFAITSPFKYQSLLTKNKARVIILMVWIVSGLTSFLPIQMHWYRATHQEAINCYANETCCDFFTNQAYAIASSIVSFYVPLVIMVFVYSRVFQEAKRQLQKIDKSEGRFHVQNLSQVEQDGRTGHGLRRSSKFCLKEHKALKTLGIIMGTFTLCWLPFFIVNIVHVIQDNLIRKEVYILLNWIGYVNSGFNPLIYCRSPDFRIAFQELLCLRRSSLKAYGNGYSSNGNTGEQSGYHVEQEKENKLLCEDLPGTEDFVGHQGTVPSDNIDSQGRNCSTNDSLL

COC(=O)c1[nH]c2ccccc2c1NC(=O)CN1CCC(C2CCCCC2)CC1 [Example 3, methyl 3-(2-(4-cyclohexylpiperidin-1-yl)acetamido)-1H-indole-2-carboxylate]
hMC4R PAM LANCE pEC50 Mean (hMC4R [1]; HEK293 cells stably expressing the hMC4R, α-MSH at an EC20 dose): 6.7 | pEC50 (hMC4R [1]; in vitro characterisation): 6.7 | Emax (hMC4R [1]; in vitro characterisation, read-out: % of αMSH maximal response): 102% | α-MSH response (inhibition of Isc) after pretreatment (native L cell MC4R; 1 μM pretreatment, α-MSH 300 nM, vs vehicle controls): significantly increased; also recorded: significantly potentiated | Effect of compound alone on basal Isc (native L cell MC4R; basolateral, Example 3 at 200 nM or 1 μM, vs vehicle): no activity on its own; also recorded: not significantly different from vehicle | MC4R PAM activity on α-MSH induced, PYY mediated short circuit current inhibition (native L cell MC4R; mouse colonic epithelium): nearly tripled the activity of α-MSH | EC50 (native L cell MC4R; mouse colonic epithelium, read-out: EC50 for potentiation of α-MSH induced short circuit current inhibition): ~200 nM | Effect on PYY responses (Y receptor): did not modulate the activity of PYY; also recorded: unaffected | Anorexigenic activity, fast-induced refeeding (C57BL/6 mice): small, but statistically significant anorexigenic activity

COc1cc(-c2nc(NCc3ccco3)c3ccccc3n2)cc(OC)c1OC [VUO127431, N-(furan-2-ylmethyl)-2-(3,4,5-trimethoxyphenyl)quinazolin-4-amine]
Effect on hMC4R signaling (cAMP) with α-MSH EC20 (hMC4R [2]): enhanced hMC4R signaling | Effect on β2-adrenergic-receptor signaling (cAMP) [3]: no significant effect on β2-adrenergic-receptor signaling
